# Measured values published in publication PMC6397705 (Molecular cancer therapeutics, 2019).
# Assays:
# PP2A = conditions: cited from earlier work
# in vitro = type: cell-based; conditions: human, EC50, cytotoxicity in U-937 cells, 72 hours, n=16
# PP2AC versus PPP5C = assay: Selectivity over the three substrate assays; type: biochemical; conditions: with all three substrates
# PP2AC [1] = target: T1, PP2AC (Bos taurus, UniProt P67774); assay: [32P]-phosphohistone phosphatase assay; type: biochemical, bovine
# PP2AC [2] = target: T1, PP2AC; assay: Phosphopeptide; type: biochemical, bovine
# HEK-293 cells = assay: Western analysis of ribosomal S6; type: cell-based, human; conditions: wild-type HEK-293 cells, 0–2 μM, 3 hours
# PP2AC [3] = target: T1, PP2AC; assay: DiFMUP-based phosphatase inhibition assay; type: biochemical, bovine
# PPP5C [4] = target: T2, PPP5C (Homo sapiens, UniProt P53041); assay: Phosphopeptide; type: biochemical
# PPP5C [5] = target: T2, PPP5C; assay: [32P]-phosphohistone phosphatase assay; type: biochemical
# solid tumor patients = conditions: of 46 solid tumor patients, Phase I; cited from earlier work
# [6] = system: PPP1C/PPP2AC/PPP5C/ PPP6C; conditions: cited from earlier work
# T1 sequence (P67774 whole entry): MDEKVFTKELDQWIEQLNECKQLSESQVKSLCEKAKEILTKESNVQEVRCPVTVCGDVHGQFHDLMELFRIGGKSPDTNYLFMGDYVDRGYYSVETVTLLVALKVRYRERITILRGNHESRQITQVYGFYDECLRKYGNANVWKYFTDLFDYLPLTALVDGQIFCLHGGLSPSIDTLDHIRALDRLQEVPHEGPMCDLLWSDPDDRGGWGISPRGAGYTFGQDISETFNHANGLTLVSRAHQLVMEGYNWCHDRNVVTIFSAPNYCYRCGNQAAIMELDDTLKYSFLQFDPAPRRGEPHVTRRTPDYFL
# T2 sequence (P53041 whole entry): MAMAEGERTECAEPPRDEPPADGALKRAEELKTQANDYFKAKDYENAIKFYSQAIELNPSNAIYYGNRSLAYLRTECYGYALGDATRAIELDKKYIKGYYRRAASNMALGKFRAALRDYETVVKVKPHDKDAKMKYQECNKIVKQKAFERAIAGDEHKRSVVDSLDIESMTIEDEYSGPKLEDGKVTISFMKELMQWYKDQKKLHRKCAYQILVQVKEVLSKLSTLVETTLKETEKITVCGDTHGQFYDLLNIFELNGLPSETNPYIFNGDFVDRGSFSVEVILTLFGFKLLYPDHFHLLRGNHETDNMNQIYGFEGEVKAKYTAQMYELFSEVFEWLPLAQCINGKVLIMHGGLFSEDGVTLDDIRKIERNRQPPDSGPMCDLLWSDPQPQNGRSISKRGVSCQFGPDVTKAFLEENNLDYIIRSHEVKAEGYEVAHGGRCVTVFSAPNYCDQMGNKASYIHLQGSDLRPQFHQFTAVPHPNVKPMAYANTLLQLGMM
compound,measurement,setting,value
4-(3-carboxy-7-oxa-bicyclo [2.2.1] heptane-2-carbonyl)piperazine-1-carboxylic acid tert- butyl ester [LB-102],selectivity for PP2A,PP2A,"> 10,000 fold"
"CN1CCN(C(=O)C2C3CCC(O3)C2C(=O)O)CC1 (centres unmarked) [LB-100, 3-(4-methylpiperazine-1-carbonyl)-7-oxabicyclo[2.2.1]heptane-2-carboxylic acid]",EC50,in vitro; LB-100 alone,11.7 µM
same,EC50,in vitro; LB-100 and 500 nM dexamethasone,5.48 µM
same,selectivity for PP2AC versus PPP5C,PP2AC versus PPP5C,4–7 fold
same,IC50,PP2AC [1],0.64 µM
same,IC50,PP2AC [2],1.27 µM
same,phosphorylation of ribosomal protein S6 (Ser235/236),HEK-293 cells,induced in the wild-type HEK-293 cells by LB-100 in a dose-dependent manner
same,IC50,PP2AC [3],0.39 µM
same,IC50,PPP5C [4],6.64 µM
same,IC50,PPP5C [5],4.9 µM
C[C@@](O)(/C=C/[C@H]1CC=CC(=O)O1)[C@@H](C[C@@H](O)\C=C/C=C\C=C\CO)OP(=O)(O)O [fostriecin],"disease stability, number of patients",solid tumor patients,16
nodularin,IC50,[6],< 0.002 µM
C[C@@]12C(=O)OC(=O)[C@]1(C)[C@H]1CC[C@@H]2O1 [cantharidin],"affinity for ser/thr phosphatases 1, 2A, 5, and 6",[6]; catalytic inhibitor,submicromolar to low micromolar
Microcystin,IC50,[6],< 0.002 µM
